Results from the supplement of paper PMC4862054.

What was measured:
Settings in all cases: incubation time: 72 h
MDA-MB-468 = experiment: normalised response (% of control), CellTiter-Glo; higher = more viable cells (100 = DMSO, 0 = benzethonium chloride kill control)
How it was run: (§1)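 In 384-well plates holding compound at 5 concentrations in 10-fold steps over a 10,000-fold range specific to each compound, breast cancer cell lines were seeded as 20 µl suspension and incubated 72 h. CellTox Green fluorescence was measured at 485/520 nm, after which CellTiter-Glo luminescence was measured following 10 min at room temperature. Plate signals were normalised to 0.1 % DMSO (100) and a positive kill control (0), and each value is the normalised signal at a single concentration.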

Hs578T = experiment: as above
How it was run: as §1

HCC1599 = experiment: as above
How it was run: as §1

CAL-51 [1] = experiment: as above
How it was run: as §1

MDA-MB-231 = experiment: as above
How it was run: as §1

BT-474 = experiment: as above
How it was run: as §1

MDA-MB-453 [2] = experiment: as above
How it was run: as §1

MCF-10A = experiment: as above
How it was run: as §1

CAL-85-1 [3] = experiment: as above
How it was run: as §1

BT-549 = experiment: as above
How it was run: as §1

HDQ-P1 [4] = experiment: as above
How it was run: as §1

HCC1937 = experiment: as above
How it was run: as §1

MFM-223 = experiment: as above
How it was run: as §1

CAL-120 = experiment: as above
How it was run: as §1

HCC1143 = experiment: as above
How it was run: as §1

MDA-MB-436 = experiment: as above
How it was run: as §1

CAL-148 [5] = experiment: as above
How it was run: as §1

SK-BR-3 = experiment: as above
How it was run: as §1

DU-4475 [6] = experiment: as above
How it was run: as §1

CAL-51 [7] = experiment: normalised viability (% of control), CellTiter-Blue; higher = more viable cells (about 100 = DMSO control)
Protocol: (§2)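 DSRT, CellTiter-Blue viability, 72 h incubation. Signal is normalised to DMSO and benzethonium chloride controls. Value is the normalised response at dose 7.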

MDA-MB-453 [8] = experiment: as above
Protocol: as §2

CAL-85-1 [9] = experiment: as above
Protocol: as §2

HDQ-P1 [10] = experiment: as above
Protocol: as §2

CAL-148 [11] = experiment: as above
Protocol: as §2

DU-4475 [12] = experiment: as above
Protocol: as §2

Row | SMILES | normalised response (MDA-MB-468) | normalised response (Hs578T) | normalised response (HCC1599) | normalised response (CAL-51 [1]) | normalised response (MDA-MB-231) | normalised response (BT-474) | normalised response (MDA-MB-453 [2]) | normalised response (MCF-10A) | normalised response (CAL-85-1 [3]) | normalised response (BT-549) | normalised response (HDQ-P1 [4]) | normalised response (HCC1937) | normalised response (MFM-223) | normalised response (CAL-120) | normalised response (HCC1143) | normalised response (MDA-MB-436) | normalised response (CAL-148 [5]) | normalised response (SK-BR-3) | normalised response (DU-4475 [6]) | normalised viability (CAL-51 [7]) | normalised viability (MDA-MB-453 [8]) | normalised viability (CAL-85-1 [9]) | normalised viability (HDQ-P1 [10]) | normalised viability (CAL-148 [11]) | normalised viability (DU-4475 [12])
1 | COc1ccc(S(=O)(=O)Nc2cccnc2Nc2ccc(O)cc2)cc1 [ABT-751] (1000 nM) | 36.9% | 45.6% | 43.5% | 104% | 63.6% | 63.8% | 54.8% | 84.4% | 34.7% | 48.9% | 71.1% | 77.8% | 69.3% | 60.9% | 67.3% | 38.7% | 87.2% | 36.1% | 81.6% | 39.7% | 25.2% | 32.3% | 51.3% | 52.5% | 66.1%
2 | Cc1cc(Nc2nc(N[C@@H](C)c3ncc(F)cn3)ncc2Cl)[nH]n1 [AZD1480] (100 nM) | 104% | 101% | 111% | 117% | 97.8% | 99.7% | 94.1% | 93.4% | 100% | 105% | 102% | 101% | 71.9% | 97.3% | 107% | 103% | 87.5% | 91.8% | 92.1% | 108% | 105% | 82.2% | 98.6% | 105% | 93.2%
3 | CNC(=O)c1ccccc1Sc1ccc2c(/C=C/c3ccccn3)n[nH]c2c1 [Axitinib] (1000 nM) | 83.9% | 93.8% | 82% | 59.4% | 111% | 102% | 87.9% | 95% | 117% | 103% | 96.8% | 88.6% | 59.8% | 95.3% | 94.6% | 97.8% | 103% | 90.5% | 102% | 88.7% | 60.4% | 76.9% | 76.8% | 97.5% | 109%
4 | CC(O)(CS(=O)(=O)c1ccc(F)cc1)C(=O)Nc1ccc(C#N)c(C(F)(F)F)c1 (stereo not given) [Bicalutamide] (1000 nM) | 110% | 95.6% | 120% | 101% | 112% | 110% | 95% | 110% | 107% | 97.6% | 108% | 100% | 102% | 108% | 101% | 107% | 102% | 109% | 99% | 108% | 102% | 91.1% | 91.4% | 102% | 90.1%
5 | CCNC(=O)CCC/C=C\C[C@@H]1[C@@H](/C=C/[C@@H](O)CCc2ccccc2)[C@H](O)C[C@@H]1O [Bimatoprost] (550 nM) | 95.2% | 93% | 105% | 102% | 97.1% | 96.7% | 93.2% | 102% | 96.3% | 104% | 95.4% | 94.5% | 90.3% | 97.1% | 92.5% | 108% | 93.6% | 88.7% | 98.3% | 118% | 91.1% | 94.2% | 93.3% | 95.9% | 104%
6 | COc1cc(Nc2c(C#N)cnc3cc(OCCCN4CCN(C)CC4)c(OC)cc23)c(Cl)cc1Cl [Bosutinib] (1000 nM) | 81% | 102% | 86.8% | 77.2% | 81.6% | 90.7% | 94.9% | 34.5% | 72.2% | 95.2% | 51.2% | 78.8% | 84% | 83.8% | 84.7% | 87.8% | 101% | 97.1% | 99.8% | 109% | 80.3% | 81.9% | 89.2% | 72% | 109%
7 | Cn1cc(C2=C(c3cn(C4CCN(Cc5ccccn5)CC4)c4ccccc34)C(=O)NC2=O)c2ccccc21 [Enzastaurin] (1000 nM) | 96.3% | 104% | 95.8% | 74.7% | 100% | 93.1% | 96.1% | 91.6% | 109% | 95.8% | 91.2% | 98.4% | 97.5% | 103% | 92.4% | 109% | 104% | 97.7% | 106% | 90.4% | 62.8% | 83.7% | 81.2% | 73% | 91.7%
